# Experimental data: the supplement of paper PMC9663587
# How the values were obtained:
# [1] = compound: T1, CC(=O)c1c(C)c2cnc(Nc3ccc(N4CCN(CCOCCOCCOCCNC(=O)COc5cccc6c5C(=O)N(C5CCC(=O)NC5=O)C6=O)CC4)cn3)nc2n(C2CCCC2)c1=O [BSJ-03-123]
# [2] = compound: Cc1cc(Nc2ncc(Cl)c(Nc3ccccc3S(=O)(=O)C(C)C)n2)c(OC(C)C)cc1C1CCNCC1 [Ceritinib/LDK378]
# [3] = compound: Cc1nc(-c2cn3c(n2)-c2ccc(-c4cnn(C(C)(C)C(N)=O)c4)cc2OCC3)n(C(C)C)n1 [Taselisib/GDC0032]
# [4] = compound: Cc1nc(Nc2ncc(C(=O)Nc3c(C)cccc3Cl)s2)cc(N2CCN(CCO)CC2)n1 [Dasatinib]
# [5] = compound: CC(=O)Nc1cccc(-n2c(=O)n(C3CC3)c(=O)c3c(Nc4ccc(I)cc4F)n(C)c(=O)c(C)c32)c1
# [6] = compound: O=C(CCCCCCC(=O)Nc1ccccc1)NO [Vorinostat]
# [7] = compound: CO[C@@H](C)Cn1c(=O)n(C)c2cnc3ccc(-c4cncc(C(C)(C)O)c4)cc3c21
# [8] = compound: T2, CCOc1cc2ncc(C#N)c(Nc3ccc(OCc4ccccn4)c(Cl)c3)c2cc1NC(=O)/C=C/CN(C)C [Neratinib/HKI272]
# [9] = compound: CNCc1ccc(-c2[nH]c3cc(F)cc4c3c2CCNC4=O)cc1 [Rucaparib]
# [10] = compound: CN(C)C/C=C/C(=O)Nc1ccc(O[C@@H]2CCC[C@@H](Nc3ncc(Cl)c(-c4c[nH]c5ccccc45)n3)C2)cc1 [BSJ-01-175]
# [11] = compound: CNC(=O)c1cccc(-c2ccc3c(N4CCOC[C@@H]4C)nc(N4CCOC[C@@H]4C)nc3n2)c1 [AZD2014]
# [12] = compound: COc1cccc2c1C(=O)c1c(O)c3c(c(O)c1C2=O)C[C@@](O)(C(=O)CO)C[C@@H]3O[C@H]1C[C@H](N)[C@H](O)[C@H](C)O1 [Doxorubicin]
# [13] = compound: CC[C@@H]1C(=O)N(C)c2cnc(Nc3ccc(C(=O)N[C@H]4CC[C@H](N5CCN(CC6CC6)CC5)CC4)cc3OC)nc2N1C(C)C [Volasertib/BI6727]
# [14] = compound: CC(=O)c1c(C)c2cnc(Nc3ccc(N4CCNCC4)cn3)nc2n(C2CCCC2)c1=O
# [15] = compound: CC(C)n1nc(-c2ccc3oc(N)nc3c2)c2c(N)ncnc21 [INK128/MLN0128]
# [16] = compound: T3, CN(C)C/C=C/C(=O)Nc1ccc(C(=O)N2CCC[C@@H](Nc3ncc(Cl)c(-c4c[nH]c5ccccc45)n3)C2)cc1 [THZ531]
# [17] = compound: T1, BSJ-03-123; assay: increase in dead-cell fraction, 72 h; higher = more death;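 note: breast cancer cell lines in 384-well plates, stained with Hoechst plus LIVE/DEAD far red dye and imaged, cells above an LDR intensity threshold counted dead, Hoechst-negative corpses included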
# [18] = compound: T2, Neratinib/HKI272; assay: as above
# [19] = compound: CCc1cnn2c(NCc3ccc[n+]([O-])c3)cc(N3CCCC[C@H]3CCO)nc12; assay: as above
# [20] = compound: C=CC(=O)Nc1ccc(C(=O)Nc2[nH]nc3c2CN(C(=O)N[C@H](CN(C)C)c2ccccc2)C3(C)C)cc1 [YKL-5-124]; assay: as above
# [21] = compound: CN(C)C/C=C/C(=O)Nc1ccc(C(=O)Nc2cccc(Nc3ncc(Cl)c(-c4c[nH]c5ccccc45)n3)c2)cc1 [THZ1]; assay: as above
# [22] = compound: T3, THZ531; assay: as above
# 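Throughout, for GR50, 72 h: breast cancer and non-malignant breast epithelial cell lines, Deep Dye Drop or Dye Drop imaging, nine half-log doses, GR normalized to time-zero plates and DMSO-only controls.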
cell line,measurement,setting,value
PDXHCI002,"GR50, 72 h",[1],1.64 µM
same,"GR50, 72 h",[2],0.338 µM
same,"GR50, 72 h",[3],0.6 µM
same,"GR50, 72 h",[4],0.509 µM
same,"GR50, 72 h",[5],> 1 µM
same,"GR50, 72 h",[6],0.282 µM
same,"GR50, 72 h",[7],1.82 µM
same,"GR50, 72 h",[8],0.162 µM
same,"GR50, 72 h",[9],> 10 µM
same,"GR50, 72 h",[10],0.00607 µM
same,"GR50, 72 h",[11],9.69 µM
same,"GR50, 72 h",[12],0.00405 µM
same,"GR50, 72 h",[13],0.00369 µM
same,"GR50, 72 h",[14],0.127 µM
same,"GR50, 72 h",[15],0.169 µM
same,"GR50, 72 h",[16],0.0493 µM
same,increase in dead-cell fraction,[17]; 0.001 µM,-0.0304
same,increase in dead-cell fraction,[17]; 0.003162 µM,-0.0395
same,increase in dead-cell fraction,[17]; 0.01 µM,-0.0247
same,increase in dead-cell fraction,[17]; 0.03162 µM,0.0116
same,increase in dead-cell fraction,[17]; 0.1 µM,0.0131
same,increase in dead-cell fraction,[17]; 0.3162 µM,0.02
same,increase in dead-cell fraction,[17]; 1 µM,0.121
same,increase in dead-cell fraction,[17]; 3.162 µM,0.127
same,increase in dead-cell fraction,[17]; 10 µM,0.299
same,increase in dead-cell fraction,[18]; 0.0003162 µM,0.0061
same,increase in dead-cell fraction,[18]; 0.001 µM,-0.001
same,increase in dead-cell fraction,[18]; 0.003162 µM,-0.0049
same,increase in dead-cell fraction,[18]; 0.01 µM,-0.0162
same,increase in dead-cell fraction,[18]; 0.03162 µM,0.0001
same,increase in dead-cell fraction,[18]; 0.1 µM,-0.0122
same,increase in dead-cell fraction,[18]; 0.3162 µM,0.0151
same,increase in dead-cell fraction,[18]; 1 µM,0.0548
same,increase in dead-cell fraction,[18]; 3.162 µM,0.31
same,increase in dead-cell fraction,[19]; 0.0001 µM,-0.0076
same,increase in dead-cell fraction,[19]; 0.0003162 µM,-0.0064
same,increase in dead-cell fraction,[19]; 0.001 µM,-0.0055
same,increase in dead-cell fraction,[19]; 0.003162 µM,-0.0087
same,increase in dead-cell fraction,[19]; 0.01 µM,-0.0047
same,increase in dead-cell fraction,[19]; 0.03162 µM,0.451
same,increase in dead-cell fraction,[19]; 0.1 µM,0.504
same,increase in dead-cell fraction,[19]; 0.3162 µM,0.458
same,increase in dead-cell fraction,[19]; 1 µM,0.44
same,increase in dead-cell fraction,[20]; 0.001 µM,0.156
same,increase in dead-cell fraction,[20]; 0.003162 µM,0.144
same,increase in dead-cell fraction,[20]; 0.01 µM,0.185
same,increase in dead-cell fraction,[20]; 0.03162 µM,0.172
same,increase in dead-cell fraction,[20]; 0.1 µM,0.186
same,increase in dead-cell fraction,[20]; 0.3162 µM,0.234
same,increase in dead-cell fraction,[20]; 1 µM,0.186
same,increase in dead-cell fraction,[20]; 3.162 µM,0.255
same,increase in dead-cell fraction,[20]; 10 µM,0.182
same,increase in dead-cell fraction,[21]; 0.0001 µM,-0.0106
same,increase in dead-cell fraction,[21]; 0.0003162 µM,-0.015
same,increase in dead-cell fraction,[21]; 0.001 µM,-0.01
same,increase in dead-cell fraction,[21]; 0.003162 µM,-0.0152
same,increase in dead-cell fraction,[21]; 0.01 µM,0.0629
same,increase in dead-cell fraction,[21]; 0.03162 µM,0.221
same,increase in dead-cell fraction,[21]; 0.1 µM,0.272
same,increase in dead-cell fraction,[21]; 0.3162 µM,0.269
same,increase in dead-cell fraction,[21]; 1 µM,0.282
same,increase in dead-cell fraction,[22]; 0.0001 µM,-0.0252
same,increase in dead-cell fraction,[22]; 0.0003162 µM,-0.029
same,increase in dead-cell fraction,[22]; 0.001 µM,-0.0123
same,increase in dead-cell fraction,[22]; 0.003162 µM,0.0054
same,increase in dead-cell fraction,[22]; 0.01 µM,0.0146
same,increase in dead-cell fraction,[22]; 0.03162 µM,0.0278
same,increase in dead-cell fraction,[22]; 0.1 µM,0.241
same,increase in dead-cell fraction,[22]; 0.3162 µM,0.379
same,increase in dead-cell fraction,[22]; 1 µM,0.263
ZR751,"GR50, 72 h",[1],3.04 µM
same,"GR50, 72 h",[2],3.79 µM
same,"GR50, 72 h",[3],0.277 µM
same,"GR50, 72 h",[4],0.0343 µM
same,"GR50, 72 h",[5],0.0293 µM
same,"GR50, 72 h",[6],3.55 µM
same,"GR50, 72 h",[7],0.0135 µM
same,"GR50, 72 h",[8],> 3.16 µM
same,"GR50, 72 h",[9],> 10 µM
same,"GR50, 72 h",[10],3.46 µM
same,"GR50, 72 h",[11],< 0.001 µM
same,"GR50, 72 h",[12],0.0247 µM
same,"GR50, 72 h",[13],0.115 µM
same,"GR50, 72 h",[14],> 3.16 µM
same,"GR50, 72 h",[15],0.00782 µM
same,"GR50, 72 h",[16],0.427 µM
same,increase in dead-cell fraction,[17]; 0.001 µM,-0.0037
same,increase in dead-cell fraction,[17]; 0.003162 µM,-0.0033
same,increase in dead-cell fraction,[17]; 0.01 µM,-0.0001
same,increase in dead-cell fraction,[17]; 0.03162 µM,-0.0011
same,increase in dead-cell fraction,[17]; 0.1 µM,0.0026
same,increase in dead-cell fraction,[17]; 0.3162 µM,-0.0001
same,increase in dead-cell fraction,[17]; 1 µM,0.0048
same,increase in dead-cell fraction,[17]; 3.162 µM,0.004
same,increase in dead-cell fraction,[17]; 10 µM,0.0165
same,increase in dead-cell fraction,[18]; 0.0003162 µM,-0.0059
same,increase in dead-cell fraction,[18]; 0.001 µM,-0.0002
same,increase in dead-cell fraction,[18]; 0.003162 µM,-0.0001
same,increase in dead-cell fraction,[18]; 0.01 µM,-0.0032
same,increase in dead-cell fraction,[18]; 0.03162 µM,-0.0037
same,increase in dead-cell fraction,[18]; 0.1 µM,-0.0037
same,increase in dead-cell fraction,[18]; 0.3162 µM,0
same,increase in dead-cell fraction,[18]; 1 µM,0.0004
same,increase in dead-cell fraction,[18]; 3.162 µM,0.001
same,increase in dead-cell fraction,[19]; 0.0001 µM,-0.0029
same,increase in dead-cell fraction,[19]; 0.0003162 µM,-0.0028
same,increase in dead-cell fraction,[19]; 0.001 µM,-0.0042
same,increase in dead-cell fraction,[19]; 0.003162 µM,0.0003
same,increase in dead-cell fraction,[19]; 0.01 µM,-0.0059
same,increase in dead-cell fraction,[19]; 0.03162 µM,0.008
same,increase in dead-cell fraction,[19]; 0.1 µM,0.22
same,increase in dead-cell fraction,[19]; 0.3162 µM,0.21
same,increase in dead-cell fraction,[19]; 1 µM,0.202
same,increase in dead-cell fraction,[20]; 0.001 µM,0.0021
same,increase in dead-cell fraction,[20]; 0.003162 µM,0.0092
same,increase in dead-cell fraction,[20]; 0.01 µM,0.0198
same,increase in dead-cell fraction,[20]; 0.03162 µM,0.0185
same,increase in dead-cell fraction,[20]; 0.1 µM,0.014
same,increase in dead-cell fraction,[20]; 0.3162 µM,0.0125
same,increase in dead-cell fraction,[20]; 1 µM,0.0157
same,increase in dead-cell fraction,[20]; 3.162 µM,0.0241
same,increase in dead-cell fraction,[20]; 10 µM,0.0249
same,increase in dead-cell fraction,[21]; 0.0001 µM,-0.0022
same,increase in dead-cell fraction,[21]; 0.0003162 µM,-0.0022
same,increase in dead-cell fraction,[21]; 0.001 µM,0.0059
same,increase in dead-cell fraction,[21]; 0.003162 µM,-0.0001
same,increase in dead-cell fraction,[21]; 0.01 µM,0.002
same,increase in dead-cell fraction,[21]; 0.03162 µM,0.0035
same,increase in dead-cell fraction,[21]; 0.1 µM,0.0005
same,increase in dead-cell fraction,[21]; 0.3162 µM,0.0111
same,increase in dead-cell fraction,[21]; 1 µM,0.0673
same,increase in dead-cell fraction,[22]; 0.0001 µM,-0.0027
same,increase in dead-cell fraction,[22]; 0.0003162 µM,0.0028
same,increase in dead-cell fraction,[22]; 0.001 µM,-0.0004
same,increase in dead-cell fraction,[22]; 0.003162 µM,0.0013
same,increase in dead-cell fraction,[22]; 0.01 µM,-0.0036
same,increase in dead-cell fraction,[22]; 0.03162 µM,0.0009
same,increase in dead-cell fraction,[22]; 0.1 µM,0.0019
same,increase in dead-cell fraction,[22]; 0.3162 µM,0.0013
same,increase in dead-cell fraction,[22]; 1 µM,0.151
